Columns and labels:
[1] = biological target: Vps34 enzyme (Homo sapiens (Human), UniProt Q8NEB9); assay: Vps34 biochemical assay (Adapta kinase assay); details: 20 μM ATP and 200 μM PI:PS in substrate mix, 1 h at room temperature, TR-FRET, read-out: Median IC50 nM Adapta
Experimental: Dilution series of compounds of the invention were prepared in DMSO at 100 times the final assay concentration (n1=n0/3 in 10 points). The compounds were further diluted to 4 times the assay concentration in assay buffer (Life technologies buffer Q, PV5125, diluted 5 times supplemented with 2 mM DTT and 2 mM MnCl2). 2.5 μl of the diluted compounds were added to a 384 well assay plate followed by 2.5 μl of 16.5 nM Vps34 enzyme (Life technologies, PV5126). Enzyme and compounds were pre-incubated at rt for 15 min. Then 5 μl of substrate mix containing 20 μM ATP (Life technologies, PV3227) and 200 μM PI:PS substrate (Life technologies, PV5122) in assay buffer was added to the wells containing compound and enzyme. Mixing was performed by pipetting several times. The reaction was incubated at room temperature for 1 h. Then 5 μl stop-detection mix, prepared as described in the Adapta kinase assay kit instructions (Life technologies, PV5099) containing Adapta Eu-anti-ADP antibody (2.3 nM), Alexa Fluor 647 ADP tracer (9 nM) and EDTA (30 mM) in TR-FRET buffer, was added to quench the reaction. Mixing was performed by pipetting several times. The assay plate was then incubated at room temperature for 30 min and read with Artemis micro plate reader. Percent inhibition of the compounds as compared to DMSO treated control samples was calculated. By the use of Dotmatics software compound concentration versus percent inhibition was fitted to generate IC50 values.

[2] = system: autophagy in HOS cells (GFP-LC3); assay: High content screening autophagy assay (GFP-LC3 foci); assay type: cell-based; details: Homo sapiens; HOS cells expressing GFP-LC3; autophagy activated with KU-0063794 500 nM plus Bafilomycin A1 5 nM; 6 hours; foci area per cell; read-out: Median IC50 (μM) Cellular assay
Experimental: Human osteosarcoma cells (HOS) stably expressing a Green Fluorescent Protein (GFP) tagged LC3 (GFP-LC3) were used to determine the inhibitory effect on autophagy of proprietary compounds. For that purpose, autophagy was activated by using the mTOR inhibitor KU-0063794 at 500 nM in the presence of Bafilomycin A1 (Sigma-Aldrich) at 5 nM. Shortly, cells were plated overnight in clear bottom 96-well plates in DMEM—High Modified media (Hi-Clone Cat #SH30285.01). At the start of the experiment, the media was removed and replaced with fresh media containing the mTOR inhibitor, Bafilomycin A1 and the vehicle or a test compound as indicated. After 6 hours the media was removed, cells were washed twice with ice-cold phosphate buffered saline (PBS) and fixed with 4% paraformaldehyde for 20 minutes at room temperature. Then the cells were washed twice with ice-cold PBS before adding Hoechst 33342 at 1 μg/ml in PBS for nuclear staining. After incubation overnight at 4° C., cells were washed once with PBS to remove the excess of dye and 100 μl of PBS was added to each well. Images were acquired at 20× magnification, 6 images per well, using the ImageXpress automated microscope (Molecular Devices Inc.) and analyzed with MetaXpress software to identify LC3-GFP foci. Foci area per cell values were used to generate dose response curves and […] were calculated using the non-linear fitting analysis in GraphPad Prism software.
The results of the assay are shown in Table 2 (Median IC50 μM HOS-LC3).

Sequence of Vps34 enzyme (Q8NEB9 whole entry): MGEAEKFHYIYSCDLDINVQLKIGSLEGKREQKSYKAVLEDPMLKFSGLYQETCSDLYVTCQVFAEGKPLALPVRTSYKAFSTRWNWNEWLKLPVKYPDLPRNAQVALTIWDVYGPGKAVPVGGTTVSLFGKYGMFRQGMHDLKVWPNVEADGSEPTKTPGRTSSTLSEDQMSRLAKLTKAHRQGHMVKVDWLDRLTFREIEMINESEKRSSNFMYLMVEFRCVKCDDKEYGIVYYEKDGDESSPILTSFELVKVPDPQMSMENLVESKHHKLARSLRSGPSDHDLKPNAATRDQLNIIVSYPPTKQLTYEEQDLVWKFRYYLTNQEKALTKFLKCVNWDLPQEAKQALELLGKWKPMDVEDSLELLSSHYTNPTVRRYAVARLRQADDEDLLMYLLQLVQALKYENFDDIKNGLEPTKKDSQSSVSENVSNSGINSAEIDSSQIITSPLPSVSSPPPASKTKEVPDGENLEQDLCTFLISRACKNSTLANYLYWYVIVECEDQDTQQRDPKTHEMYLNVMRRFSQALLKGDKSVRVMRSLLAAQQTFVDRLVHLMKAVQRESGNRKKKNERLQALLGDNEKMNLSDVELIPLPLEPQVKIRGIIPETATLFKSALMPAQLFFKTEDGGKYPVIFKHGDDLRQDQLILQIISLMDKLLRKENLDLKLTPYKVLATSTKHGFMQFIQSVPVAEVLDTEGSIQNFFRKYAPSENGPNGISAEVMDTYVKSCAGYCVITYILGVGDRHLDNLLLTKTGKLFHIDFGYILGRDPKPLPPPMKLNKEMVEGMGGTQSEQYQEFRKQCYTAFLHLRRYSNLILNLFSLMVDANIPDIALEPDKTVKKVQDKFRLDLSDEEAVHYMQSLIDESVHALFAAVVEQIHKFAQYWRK

SMILES | IC50 [1] [nM] | IC50 [2] [µM]
CC(=O)Nc1cc(-c2cc(N3CCOCC3C3CC3)[nH]c(=O)c2)ccn1 (stereo not drawn) [Example 32, N-[4-[2-(3-cyclopropylmorpholin-4-yl)-6-oxo-1H-pyridin-4-yl]-2-pyridyl]acetamide] | 5 | 
COC(=O)Nc1cc(-c2cc(N3CCOCC3C(F)(F)F)[nH]c(=O)c2)ccn1 (stereo not drawn) [Example 45, Methyl N-[4-[2-oxo-6-[3-(trifluoromethyl)morpholin-4-yl]-1H-pyridin-4-yl]-2-pyridyl]carbamate] | < 5 | 0.023
COC(=O)Nc1cc(-c2cc(-c3ccccc3C(F)(F)F)[nH]c(=O)c2)ccn1 [Example 48, Methyl N-[4-[2-oxo-6-[2-(trifluoromethyl)phenyl]-1H-pyridin-4-yl]-2-pyridyl]carbamate] | < 5 | 0.02
CCS(=O)(=O)N1CCN(c2cc(-c3ccnc(NC(C)=O)c3)cc(=O)[nH]2)C(C(F)(F)F)C1 (stereo not drawn) [Example 30, N-[4-[2-[4-ethylsulfonyl-2-(trifluoromethyl)piperazin-1-yl]-6-oxo-1H-pyridin-4-yl]-2-pyridyl]acetamide] | < 5 | 0.02
CC(=O)Nc1cc(-c2cc(-c3cscc3C(F)(F)F)[nH]c(=O)c2)ccn1 [Example 42, N-[4-[2-oxo-6-[4-(trifluoromethyl)-3-thienyl]-1H-pyridin-4-yl]-2-pyridyl]acetamide] | < 5 | 0.046
Nc1cc(-c2cc(-c3ccccc3Cl)[nH]c(=O)c2)ccn1 [Example 11, 4-(2-Amino-4-pyridyl)-6-(2-chlorophenyl)-1H-pyridin-2-one] | 45 | 0.742
Nc1cc(-c2cc(-c3cccnc3)[nH]c(=O)c2)ccn1 [Example 5, 4-(2-Amino-4-pyridyl)-6-(3-pyridyl)-1H-pyridin-2-one] | 410 | 
CC(=O)Nc1cc(-c2cc(N3CCCCC3C(F)(F)F)[nH]c(=O)c2)ccn1 (stereo not drawn) [Example 19, N-[4-[2-oxo-6-[2-(trifluoromethyl)-1-piperidyl]-1H-pyridin-4-yl]-2-pyridyl]acetamide] | 12 | 0.067
CC(=O)Nc1cc(-c2cc(N3CCOCC3C(F)(F)F)[nH]c(=O)c2)ccn1 (stereo not drawn) [Example 26, N-[4-[2-oxo-6-[3-(trifluoromethyl)morpholin-4-yl]-1H-pyridin-4-yl]-2-pyridyl]acetamide] | < 5 | 0.113
CC(=O)Nc1cc(-c2cc(-c3cccnc3C(F)(F)F)[nH]c(=O)c2)ccn1 [Example 36, N-[4-[2-oxo-6-[2-(trifluoromethyl)-3-pyridyl]-1H-pyridin-4-yl]-2-pyridyl]acetamide] | < 5 | 0.092
CC(=O)Nc1cc(-c2cc(-c3cccnc3C)[nH]c(=O)c2)ccn1 [Example 38, N-[4-[2-(2-methyl-3-pyridyl)-6-oxo-1H-pyridin-4-yl]-2-pyridyl]acetamide] | < 5 | 
CC(=O)Nc1cc(-c2cc(-c3ccccc3C(F)(F)F)[nH]c(=O)c2)ccn1 [Example 34, N-[4-[2-oxo-6-[2-(trifluoromethyl)phenyl]-1H-pyridin-4-yl]-2-pyridyl]acetamide] | < 5 | 0.063
CC(=O)Nc1cc(-c2cc(-c3ccccc3Cl)[nH]c(=O)c2)ccn1 [Example 1, N-[4-[2-(2-chlorophenyl)-6-oxo-1H-pyridin-4-yl]-2-pyridyl]acetamide] |  | 0.026
COCC(=O)Nc1cc(-c2cc(-c3ccccc3Cl)[nH]c(=O)c2)ccn1 [Example 12, N-[4-[2-(2-chlorophenyl)-6-oxo-1H-pyridin-4-yl]-2-pyridyl]-2-methoxy-acetamide] | 7 | 0.147
CC(=O)Nc1cc(-c2cc(-c3cnccc3C)[nH]c(=O)c2)ccn1 [Example 40, N-[4-[2-(4-methyl-3-pyridyl)-6-oxo-1H-pyridin-4-yl]-2-pyridyl]acetamide] | < 5 | 
O=C(Nc1cc(-c2cc(N3CCCCC3C(F)(F)F)[nH]c(=O)c2)ccn1)C1CC1 (stereo not drawn) [Example 21, N-[4-[2-oxo-6-[2-(trifluoromethyl)-1-piperidyl]-1H-pyridin-4-yl]-2-pyridyl]cyclopropanecarboxamide] | < 5 | 0.016
CCn1cc(-c2cc(-c3ccnc(NC(C)=O)c3)cc(=O)[nH]2)c(C(F)(F)F)n1 [Example 44, N-[4-[2-[1-ethyl-3-(trifluoromethyl)pyrazol-4-yl]-6-oxo-1H-pyridin-4-yl]-2-pyridyl]acetamide] | < 5 | 0.138

Next, values leading:

IC50 [1] [nM] | IC50 [2] [µM] | SMILES
50 |  | CN(C)C(=O)Nc1cc(-c2cc(-c3ccccc3C(F)(F)F)[nH]c(=O)c2)ccn1 [Example 62, 1,1-Dimethyl-3-[4-[2-oxo-6-[2-(trifluoromethyl)phenyl]-1H-pyridin-4-yl]-2-pyridyl]urea]
< 5 | 0.105 | CCn1cc(-c2cc(-c3ccnc(NC(=O)OC)c3)cc(=O)[nH]2)c(C(F)(F)F)n1 [Example 54, Methyl N-[4-[2-[1-ethyl-3-(trifluoromethyl)pyrazol-4-yl]-6-oxo-1H-pyridin-4-yl]-2-pyridyl]carbamate]
< 5 |  | COC(=O)Nc1cc(-c2cc(N3CCCCC3C(F)(F)F)[nH]c(=O)c2)ccn1 (stereo not drawn) [Example 70, Methyl N-[4-[2-oxo-6-[2-(trifluoromethyl)-1-piperidyl]-1H-pyridin-4-yl]-2-pyridyl]carbamate]
< 5 | 0.029 | COC(=O)Nc1cc(-c2cc(-c3ccccc3Cl)[nH]c(=O)c2)ccn1 [Example 50, Methyl N-[4-[2-(2-chlorophenyl)-6-oxo-1H-pyridin-4-yl]-2-pyridyl]carbamate]
< 5 | 0.022 | COC(=O)Nc1cc(-c2cc(-c3cccnc3C(F)(F)F)[nH]c(=O)c2)ccn1 [Example 52, Methyl N-[4-[2-oxo-6-[2-(trifluoromethyl)-3-pyridyl]-1H-pyridin-4-yl]-2-pyridyl]carbamate]
26 |  | COC(C)(C)C1CCCN1c1cc(-c2ccnc(NC(C)=O)c2)cc(=O)[nH]1 (stereo not drawn) [Example 68, N-[4-[2-[2-(1-methoxy-1-methyl-ethyl)pyrrolidin-1-yl]-6-oxo-1H-pyridin-4-yl]-2-pyridyl]acetamide]
147 |  | O=C(Nc1cc(-c2cc(-c3ccccc3C(F)(F)F)[nH]c(=O)c2)ccn1)N1CCCC1 [Example 66, N-[4-[2-oxo-6-[2-(trifluoromethyl)phenyl]-1H-pyridin-4-yl]-2-pyridyl]pyrrolidine-1-carboxamide]

From US11219618B2, “Pyridylpyridone compounds” (Sprint Bioscience AB, priority 2017, dated 2022)
